# Measurements published in PubChem BioAssay AID2060325 (Molecular Pharmacology Branch, DTP, NCI, 2025).
# Test system: SK-OV-3 multi-cell spheroids, viability
# Experiment: Anticancer human tumor SK-OV-3 cell line growth inhibition [IpAb];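 as to viability, T/C: viability read after seven days of drug exposure; percent of DMSO vehicle control luminescence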
# Settings: for IC50: curve of first compound; for viability, T/C: stronger effect = lower value
# Method in brief: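 Multi-cell spheroids of 60% tumour cells, 25% HUVEC and 15% MSC in ultra-low-attachment U-bottom wells, treated with agents combined with ipatasertib or abemaciclib. Half-log ranges top out near clinical Cmax, or 10 microM when Cmax is unknown.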
smiles,measurement,setting,value
CC(C)(C)c1cnc(CSc2cnc(NC(=O)C3CCNCC3)s2)o1 + CCN1CCN(Cc2ccc(Nc3ncc(F)c(-c4cc(F)c5nc(C)n(C(C)C)c5c4)n3)nc2)CC1,IC50,second compound 0.01 µM,196 nM
same,IC50,second compound 0.0316 µM,168 nM
same,IC50,second compound 0.1 µM,147 nM
same,IC50,second compound 0.316 µM,129 nM
same,IC50,second compound 1 µM,< 9.49 nM
same,"viability, T/C","second compound 0.01 µM, first compound 0.00949 µM",99.3%
same,"viability, T/C","second compound 0.01 µM, first compound 0.03 µM",109%
same,"viability, T/C","second compound 0.01 µM, first compound 0.0949 µM",104%
same,"viability, T/C","second compound 0.01 µM, first compound 0.3 µM",18.4%
same,"viability, T/C","second compound 0.01 µM, first compound 0.949 µM",0.62%
same,"viability, T/C","second compound 0.01 µM, first compound 3 µM",1.2%
same,"viability, T/C","second compound 0.0316 µM, first compound 0.00949 µM",80.2%
same,"viability, T/C","second compound 0.0316 µM, first compound 0.03 µM",87.8%
same,"viability, T/C","second compound 0.0316 µM, first compound 0.0949 µM",88.3%
same,"viability, T/C","second compound 0.0316 µM, first compound 0.3 µM",14%
same,"viability, T/C","second compound 0.0316 µM, first compound 0.949 µM",1.38%
same,"viability, T/C","second compound 0.0316 µM, first compound 3 µM",1.32%
same,"viability, T/C","second compound 0.1 µM, first compound 0.00949 µM",63%
same,"viability, T/C","second compound 0.1 µM, first compound 0.03 µM",70.4%
same,"viability, T/C","second compound 0.1 µM, first compound 0.0949 µM",80.5%
same,"viability, T/C","second compound 0.1 µM, first compound 0.3 µM",15.7%
same,"viability, T/C","second compound 0.1 µM, first compound 0.949 µM",0.84%
same,"viability, T/C","second compound 0.1 µM, first compound 3 µM",0.9%
same,"viability, T/C","second compound 0.316 µM, first compound 0.00949 µM",60.1%
same,"viability, T/C","second compound 0.316 µM, first compound 0.03 µM",62%
same,"viability, T/C","second compound 0.316 µM, first compound 0.0949 µM",63.4%
same,"viability, T/C","second compound 0.316 µM, first compound 0.3 µM",17.3%
same,"viability, T/C","second compound 0.316 µM, first compound 0.949 µM",0.83%
same,"viability, T/C","second compound 0.316 µM, first compound 3 µM",1.1%
same,"viability, T/C","second compound 1 µM, first compound 0.00949 µM",44.7%
same,"viability, T/C","second compound 1 µM, first compound 0.03 µM",51.1%
same,"viability, T/C","second compound 1 µM, first compound 0.0949 µM",50.1%
same,"viability, T/C","second compound 1 µM, first compound 0.3 µM",12.7%
same,"viability, T/C","second compound 1 µM, first compound 0.949 µM",1.41%
same,"viability, T/C","second compound 1 µM, first compound 3 µM",1.15%
Cn1nccc1Nc1nccc(-c2ccn(C(CO)c3ccc(Cl)c(F)c3)c(=O)c2)n1 (stereo not given) + CCN1CCN(Cc2ccc(Nc3ncc(F)c(-c4cc(F)c5nc(C)n(C(C)C)c5c4)n3)nc2)CC1,IC50,second compound 0.01 µM,7380 nM
same,IC50,second compound 0.0316 µM,6800 nM
same,IC50,second compound 0.1 µM,9030 nM
same,IC50,second compound 0.316 µM,4250 nM
same,IC50,second compound 1 µM,< 31.6 nM
same,"viability, T/C","second compound 0.01 µM, first compound 0.0316 µM",84%
same,"viability, T/C","second compound 0.01 µM, first compound 0.1 µM",98.2%
same,"viability, T/C","second compound 0.01 µM, first compound 0.316 µM",105%
same,"viability, T/C","second compound 0.01 µM, first compound 1 µM",118%
same,"viability, T/C","second compound 0.01 µM, first compound 3.16 µM",91.6%
same,"viability, T/C","second compound 0.01 µM, first compound 10 µM",35.1%
same,"viability, T/C","second compound 0.0316 µM, first compound 0.0316 µM",71.3%
same,"viability, T/C","second compound 0.0316 µM, first compound 0.1 µM",80.8%
same,"viability, T/C","second compound 0.0316 µM, first compound 0.316 µM",84.4%
same,"viability, T/C","second compound 0.0316 µM, first compound 1 µM",102%
same,"viability, T/C","second compound 0.0316 µM, first compound 3.16 µM",74%
same,"viability, T/C","second compound 0.0316 µM, first compound 10 µM",38%
same,"viability, T/C","second compound 0.1 µM, first compound 0.0316 µM",56.2%
same,"viability, T/C","second compound 0.1 µM, first compound 0.1 µM",55.9%
same,"viability, T/C","second compound 0.1 µM, first compound 0.316 µM",63.2%
same,"viability, T/C","second compound 0.1 µM, first compound 1 µM",69.6%
same,"viability, T/C","second compound 0.1 µM, first compound 3.16 µM",60.3%
same,"viability, T/C","second compound 0.1 µM, first compound 10 µM",34.3%
same,"viability, T/C","second compound 0.316 µM, first compound 0.0316 µM",52.1%
same,"viability, T/C","second compound 0.316 µM, first compound 0.1 µM",55.9%
same,"viability, T/C","second compound 0.316 µM, first compound 0.316 µM",61.1%
same,"viability, T/C","second compound 0.316 µM, first compound 1 µM",58.8%
same,"viability, T/C","second compound 0.316 µM, first compound 3.16 µM",54.4%
same,"viability, T/C","second compound 0.316 µM, first compound 10 µM",36%
same,"viability, T/C","second compound 1 µM, first compound 0.0316 µM",40.8%
same,"viability, T/C","second compound 1 µM, first compound 0.1 µM",48.9%
same,"viability, T/C","second compound 1 µM, first compound 0.316 µM",52.2%
same,"viability, T/C","second compound 1 µM, first compound 1 µM",60%
same,"viability, T/C","second compound 1 µM, first compound 3.16 µM",57%
same,"viability, T/C","second compound 1 µM, first compound 10 µM",40.2%
